Assay [1] has as its target T1, MTHFD2 recombinant human enzyme (Homo sapiens, UniProt P13995).
T1 sequence (P13995 36-350): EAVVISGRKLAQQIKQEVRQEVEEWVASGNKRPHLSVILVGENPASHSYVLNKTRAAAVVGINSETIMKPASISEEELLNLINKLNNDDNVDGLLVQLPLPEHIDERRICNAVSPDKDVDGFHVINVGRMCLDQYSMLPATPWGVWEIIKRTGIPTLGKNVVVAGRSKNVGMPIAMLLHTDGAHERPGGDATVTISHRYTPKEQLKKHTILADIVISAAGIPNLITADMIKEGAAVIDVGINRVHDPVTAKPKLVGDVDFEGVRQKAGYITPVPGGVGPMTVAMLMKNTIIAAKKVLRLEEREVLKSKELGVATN
Put plainly: MTHFD2 inhibition assay (NAD(P)H-Glo luminescence). To be noted: for MTHFD1/MTHFD2 IC50 ratio: selectivity of MTHFD2 inhibition over MTHFD1, band.

For a further assay, the system named is human CD4+ T cells. Kind of assay: Human CD4+ T-cell proliferation assay (CFSE, CD3/28 beads). To be noted: read-out: Proliferation IC50.
For assay [2], the target named is T2, MTHFD1 recombinant human enzyme (Homo sapiens, UniProt P11586).
T2 sequence (P11586 2-291 limits assumed): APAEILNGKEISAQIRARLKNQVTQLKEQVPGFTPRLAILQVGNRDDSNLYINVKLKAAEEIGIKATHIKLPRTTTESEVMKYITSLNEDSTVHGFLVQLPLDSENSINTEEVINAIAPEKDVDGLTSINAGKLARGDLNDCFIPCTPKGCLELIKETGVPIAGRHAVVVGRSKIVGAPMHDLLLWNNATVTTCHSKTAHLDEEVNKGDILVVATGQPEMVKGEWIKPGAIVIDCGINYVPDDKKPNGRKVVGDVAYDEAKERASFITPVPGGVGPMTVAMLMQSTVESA
Kind of assay: MTHFD1 inhibition assay (NAD(P)H-Glo luminescence). Conditions: MTHFD1 IC50, recombinant human enzyme 200 nM, NADP, band.

The record followed here is patent US12662489B2 (Sitryx Therapeutics Limited, priority 2023, dated 2026).

The structures appear in SMILES notation. pIC50: −log10 of the molar value.

Turning to `COC[C@H]1CN(c2cc(C)c3c4c(c(=O)oc3c2C)CN(C(=O)c2ccc(C(=O)NS(=O)(=O)N3CCCC3)c(OC)c2F)CC4)CCN1C` [Example 135, (R)-3-fluoro-2-methoxy-4-(8-(3-(methoxymethyl)-4-methylpiperazin-1-yl)-7,10-dimethyl-5-oxo-1,3,4,5-tetrahydro-2H-chromeno[3,4-c]pyridine-3-carbonyl)-N-(pyrrolidin-1-ylsulfonyl)benzamide], the figures for the pIC50 (in assay [1]; with human CD4+ T cells; in assay [2]) were 8.00 to 9.00, 7.52 to 8.00 and 7.00 to 8.00, respectively. Moreover, the “MTHFD1/MTHFD2 IC50 ratio” value in assay [1] is on record as “G (^ 3 to 9.0)”.

For the compound `COC[C@H]1CN(c2cc(C)c3c4c(c(=O)oc3c2C)CN(C(=O)c2ccc(C(=O)NS(=O)(=O)C3(C)CC3)c(N(C)C)c2F)CC4)CCN1C` [Example 136, (R)-2-(dimethylamino)-3-fluoro-4-(8-(3-(methoxymethyl)-4-methylpiperazin-1-yl)-7,10-dimethyl-5-oxo-1,3,4,5-tetrahydro-2H-chromeno[3,4-c]pyridine-3-carbonyl)-N-((1-methylcyclopropyl)sulfonyl)benzamide], the pIC50 in assay [1] is 7.00 to 8.00; in the assay on human CD4+ T cells it was 7.00 to 7.52; in assay [2], 6.00 to 7.00. The “MTHFD1/MTHFD2 IC50 ratio” value in assay [1] is listed as “H (>9.0 to 30)”.

As to `COC[C@H]1CN(c2cc(C)c3c4c(c(=O)oc3c2C)CN(C(=O)c2ccc(C(=O)NS(=O)(=O)N3CCCC3)c(OC(C)C)c2F)CC4)CCN1C` [Example 149, (R)-3-fluoro-2-isopropoxy-4-(8-(3-(methoxymethyl)-4-methylpiperazin-1-yl)-7,10-dimethyl-5-oxo-1,3,4,5-tetrahydro-2H-chromeno[3,4-c]pyridine-3-carbonyl)-N-(pyrrolidin-1-ylsulfonyl)benzamide], the pIC50 in assay [1] was 8.00 to 9.00; with human CD4+ T cells, 8.00 to 9.00; in assay [2] it was 7.00 to 8.00. Also, the “MTHFD1/MTHFD2 IC50 ratio” value in assay [1] is “F (<3)”.

Turning to `COC[C@H]1CN(c2cc(C)c3c4c(c(=O)oc3c2C)CN(C(=O)c2cc(N(C)C)c(C(=O)NS(=O)(=O)C3(C)CC3)cc2Cl)CC4)CCN1C` [Example 151, (R)-5-chloro-2-(dimethylamino)-4-(8-(3-(methoxymethyl)-4-methylpiperazin-1-yl)-7,10-dimethyl-5-oxo-1,3,4,5-tetrahydro-2H-chromeno[3,4-c]pyridine-3-carbonyl)-N-((1-methylcyclopropyl)sulfonyl)benzamide], the pIC50 in assay [1] was 7.00 to 8.00; with human CD4+ T cells, 6.00 to 7.00; in assay [2], 5.30 to 6.00. Besides, in assay [1], the “MTHFD1/MTHFD2 IC50 ratio” value is “J (>30)”.

Consider `COC[C@H]1CN(c2cc(C)c3c4c(c(=O)oc3c2C)CN(C(=O)c2ccc(C(=O)NS(=O)(=O)N3CCC5(CC3)CC5)c(OC)c2F)CC4)CCN1C` [Example 155, (R)-N-((6-azaspiro[2.5]octan-6-yl)sulfonyl)-3-fluoro-2-methoxy-4-(8-(3-(methoxymethyl)-4-methylpiperazin-1-yl)-7,10-dimethyl-5-oxo-1,3,4,5-tetrahydro-2H-chromeno[3,4-c]pyridine-3-carbonyl)benzamide], for which the pIC50 in assay [1] was 7.00 to 8.00; with human CD4+ T cells, 7.52 to 8.00; in assay [2], 6.00 to 7.00.

Turning to `COC[C@H]1CN(c2cc(C)c3c4c(c(=O)oc3c2C)CN(C(=O)c2ccc(C(=O)NS(=O)(=O)N3C5CCC3CC5)c(OC)c2F)CC4)CCN1C` [Example 157, (R)-N-((7-azabicyclo[2.2.1]heptan-7-yl)sulfonyl)-3-fluoro-2-methoxy-4-(8-(3-(methoxymethyl)-4-methylpiperazin-1-yl)-7,10-dimethyl-5-oxo-1,3,4,5-tetrahydro-2H-chromeno[3,4-c]pyridine-3-carbonyl)benzamide], the pIC50 is 7.00 to 8.00 in assay [1], 7.00 to 7.52 in the assay on human CD4+ T cells and 6.00 to 7.00 in assay [2]. Besides, the “MTHFD1/MTHFD2 IC50 ratio” value in assay [1] is “H (>9.0 to 30)”.

In the case of `COC[C@H]1CN(c2cc(C)c3c4c(c(=O)oc3c2C)CN(C(=O)c2ccc(C(=O)NS(=O)(=O)N3CCCC3)c(OC(F)(F)F)c2F)CC4)CCN1C` [Example 169, (R)-3-fluoro-4-(8-(3-(methoxymethyl)-4-methylpiperazin-1-yl)-7,10-dimethyl-5-oxo-1,3,4,5-tetrahydro-2H-chromeno[3,4-c]pyridine-3-carbonyl)-N-(pyrrolidin-1-ylsulfonyl)-2-(trifluoromethoxy)benzamide], the results for the pIC50 (in assay [1]; in the assay with human CD4+ T cells; in assay [2]) were 7.00 to 8.00, 6.00 to 7.00 and 6.00 to 7.00, respectively. Besides, the “MTHFD1/MTHFD2 IC50 ratio” value in assay [1] was “H (>9.0 to 30)”.

Consider `COC[C@H]1CN(c2cc(C)c3c4c(c(=O)oc3c2C)CN(C(=O)c2ccc(C(=O)NS(=O)(=O)N3CCCC3)c(OC(F)F)c2F)CC4)CCN1C` [Example 171, (R)-2-(difluoromethoxy)-3-fluoro-4-(8-(3-(methoxymethyl)-4-methylpiperazin-1-yl)-7,10-dimethyl-5-oxo-1,3,4,5-tetrahydro-2H-chromeno[3,4-c]pyridine-3-carbonyl)-N-(pyrrolidin-1-ylsulfonyl)benzamide], for which the pIC50 in assay [1] is 7.00 to 8.00; in the assay with human CD4+ T cells, 6.00 to 7.00; in assay [2], 6.00 to 7.00. For the same compound, the “MTHFD1/MTHFD2 IC50 ratio” value in assay [1] is “G (^ 3 to 9.0)”.

For the compound `COC[C@H]1CN(c2cc(C)c3c4c(c(=O)oc3c2C)CN(C(=O)c2ccc(C(=O)NS(=O)(=O)N3CCCC3)c(Cl)c2F)CC4)CCN1C` [Example 178, (R)-2-chloro-3-fluoro-4-(8-(3-(methoxymethyl)-4-methylpiperazin-1-yl)-7,10-dimethyl-5-oxo-1,3,4,5-tetrahydro-2H-chromeno[3,4-c]pyridine-3-carbonyl)-N-(pyrrolidin-1-ylsulfonyl)benzamide], the pIC50 was 7.00 to 8.00 in assay [1], 6.00 to 7.00 with human CD4+ T cells and 6.00 to 7.00 in assay [2]. For the same compound, in assay [1], the “MTHFD1/MTHFD2 IC50 ratio” value is “J (>30)”.

Take `COC[C@H]1CN(c2ccc3c4c(c(=O)oc3c2C)CN(C(=O)c2cc(N(C)C)c(C(=O)NS(=O)(=O)N3CC5CC5C3)cc2F)CC4)CCN1C` (stereo partly drawn) [Example 181, N-((3-azabicyclo[3.1.0]hexan-3-yl)sulfonyl)-2-(dimethylamino)-5-fluoro-4-(8-((R)-3-(methoxymethyl)-4-methylpiperazin-1-yl)-7-methyl-5-oxo-1,3,4,5-tetrahydro-2H-chromeno[3,4-c]pyridine-3-carbonyl)benzamide]: the pIC50 in assay [1] is 7.00 to 8.00; in the assay with human CD4+ T cells, 7.52 to 8.00; in assay [2] it was 6.00 to 7.00. Also, in assay [1], the “MTHFD1/MTHFD2 IC50 ratio” value is “H (>9.0 to 30)”.

Take `COC[C@H]1CN(c2cc(C)c3c4c(c(=O)oc3c2C)CN(C(=O)c2cc(N(C)C)c(C(=O)NS(=O)(=O)N3C5CCC3CC5)cc2Cl)CC4)CCN1C` [Example 193, (R)-N-((7-azabicyclo[2.2.1]heptan-7-yl)sulfonyl)-5-chloro-2-(dimethylamino)-4-(8-(3-(methoxymethyl)-4-methylpiperazin-1-yl)-7,10-dimethyl-5-oxo-1,3,4,5-tetrahydro-2H-chromeno[3,4-c]pyridine-3-carbonyl)benzamide]: the pIC50 was 7.00 to 8.00 in assay [1], 7.00 to 7.52 in the assay with human CD4+ T cells and 5.30 to 6.00 in assay [2]. In assay [1], the “MTHFD1/MTHFD2 IC50 ratio” value is “J (>30)”.
